Data reported in patent publication US20250066286A1, “COMPOSITIONS OF (Z)-ENDOXIFEN AND METHODS OF ENRICHMENT THEREOF” (Atossa Therapeutics, Inc., priority 2022, published 2025).
Read-outs that look alike come from different tables or passages of the source.

What was measured:
Format in all cases: physicochemical
[1] = Stability at various temperatures and relative humidities, seven days (XRPD); conditions: 7 days
Method: The stabilities of the polymorphs were also assessed at various temperatures and relative humidities. These analyses were performed by storing 20 mg of polymorph samples for seven days at: (1) 25° C. and 100% relative humidity, (2) 40° C. and 75% relative humidity, (3) 25° C. and 60% relative humidity, and (4) at 60° C. and 75% relative humidity. XRPD was collected on the samples following these incubations and compared to XRPD of the samples prior to storage.

[2] = Thermogravimetric analysis (TGA), degradation
Method: The TGA profile of Form I is shown in the top panel of FIG. 12 with the heat-flow profile in the middle panel of FIG. 12, and the first derivative of the TGA profile in the bottom pane of FIG. 12. […] A weight loss of 0.2% was detected between 140° C. and 180° C., potentially ascribable to solvent release. Degradation of Form I took place above 270° C. The heat-flow profile included two main peaks around 50° C. and 160° C. The first derivative of the TGA profile indicated a greatest decline in the TGA profile occurred around 400° C., and that weight loss occurred around 320° C.

[3] = Storage stability of polymorphic forms at room temperature in a sealed vial (XRPD time course)
Method: Form I samples were collected for XR-PD analysis following 0, 7, and 42 days of storage, the results of which are shown in FIG. 10.
The stability of polymorphic Form IV was evaluated over 7 days of storage at room temperature in a sealed vial. Portions of the Form IV samples were collected for XRPD analysis following 0 (Form IV), 3 (Form IV-3D3-storage), and 7 days (Form IV-7D3-storage) of storage, the results of which are shown in FIG. 14.
The stability of polymorphic Form IV was also evaluated following crystallization from a room temperature 2-propanol/THF 95/5 (v/v) solvent system containing 40 mg/ml (Z)-endoxifen. XPRD was collected immediately after recovery and following 15 days storage at room temperature in a sealed vial. FIG. 15 provides the resultant XRPD patterns following 15 days storage (Form IV-2PR/THF-15D-storage) and 0 days storage (Form IV-2PR/THF-0D-storage), as well as an XRPD spectrum of Form IV (Form IV) obtained from 2-propanol recrystallization.
Since the room temperature evaporation in acetone yielded a mixture of polymorphic Form I and Form IV XRPD patterns with a very intense unassigned signal at 16.1° 2θ, the sample was re-measured following 7 days storage in a sealed vial. From top to bottom, FIG. 16 provides XRPD patterns of the acetone-generated polymorphs following 7 (EVRT-ACT-7D-storage) and 0 days of storage (EVRT-ACT-0D-storage), a Form IV spectrum (Form IV), and a Form I (Form I) spectrum, respectively.
Form XVII was further assessed after 3 days storage in a sealed vial at room temperature.
Form XVIII was further reassessed by XRPD following 3 and 7 days storage at room temperature in a sealed vial. The data from these analyses are summarized in FIG. 24, which (from top to bottom) provides the sample following 7 days storage (Form XVIII-7D-storage), the sample following 3 days storage (Form XVIII-3D-storage), and the sample immediately following crystallization (Form XVIII).
Form XIX room temperature stability was evaluated with XRPD. XRPD of a Form XIX sample immediately following crystallization (Form XIX) and following 7 days of storage (Form XIX-7D-storage) are shown in FIG. 26.
The stability of polymorphic Form V was over 10 days of storage at room temperature in a sealed vial. XR-PD was performed following 0, 3, and 10 days storage.
To evaluate Form VI stability, XRPD spectra of a Form VI sample were collected following 0, 3, and 14 days of room temperature storage in a sealed vial. The resulting XRPD patterns of the sample following 0 (Form VI), 3 (Form VI-3D-storage), and 14 days storage (Form VI-14D-storage) are shown in FIG. 30.
The stability of polymorphic Form VII was evaluated over 7 days of storage at room temperature in a sealed vial. Portions of the Form VII samples were collected for XRPD analysis over 7 days of storage, the results of which are shown in FIG. 32.
Form VIII stability over 7 days storage in a sealed vial at room temperature was evaluated with XRPD.
The stability of Form IX generated by precipitation from an ethyl acetate/heptane solvent system (Form IX Recrystallization (1)) was evaluated over 7 days of storage at room temperature. Portions of the Form IX sample were collected following 0 and 7 days of storage in a sealed vial and analyzed by XRPD analysis to identify possible changes in the polymorph.
Form IX stability was separately characterized for crystals generated through the addition of (Z)-endoxifen saturated ethyl acetate to heptane (Form IX Recrystallization (2)), which yielded higher crystallinity Form IX than was afforded by heptane addition to (Z)-endoxifen saturated ethyl acetate.
Form IX stability was further evaluated for crystals generated by precipitation from an acetone/butyl methyl ether (acetone/BME) solvent/antisolvent mixture (Form IX Recrystallization (4)). Portions of the Form IX sample were collected following 0 and 5 days of storage in a sealed vial at room temperature and compared to reference XRPD patterns of Forms VII and IX. […]

[4] = Mechanical stability: grinding and kneading by ball milling (XRPD); conditions: for XRPD pattern after mechanical grinding: 10 minutes ball milling at 30 Hz; for XRPD pattern after kneading: 10 minutes ball milling at 30 Hz with catalytic 2-propanol (2 μl)
Method: Stability tests were performed on mixtures of Form I and Form IV; Form I and Form VII; and Form I, Form IV, and Form VII. In a first mechanical stability test, the polymorphs were analyzed by XRPD following 10 minutes of grinding by ball milling at 30 Hz. In a second mechanical stability test, the polymorphs were analyzed by XRPD following 10 minutes of kneading by ball milling at 30 Hz in the presence of a catalytic amount of 2-propanol (2 μl).

[5] = 25° C. and 100% relative humidity
[6] = 40° C. and 75% relative humidity
[7] = 3 days, room temperature, sealed vial
[8] = 7 days, room temperature, sealed vial

SMILES: CC/C(=C(\c1ccc(O)cc1)c1ccc(OCCNC)cc1)c1ccccc1 [Form I, (Z)-endoxifen]
- XRPD pattern after storage [1, 5]: did not induce detectable changes in the Form I XRPD
- XRPD pattern after storage [1, 6]: no significant changes to the XRPD pattern
- Degradation temperature (TGA) [2]: above 270 °C
- Degradation temperature (TGA) ([2]; sample from scaled-up crystallization): 270 °C
- XRPD change on storage ([3]; 0, 7, and 42 days of storage): stable under ambient conditions
- XRPD pattern after mechanical grinding [4]: converted portions of Form I to amorphous endoxifen
- XRPD pattern after kneading [4]: converted portions of Form I to amorphous endoxifen

SMILES: CC/C(=C(\c1ccc(O)cc1)c1ccc(OCCNC)cc1)c1ccccc1 [Form IX, (Z)-endoxifen]
- Degradation temperature (TGA) [2]: above 270 °C
- XRPD change on storage ([3]; 5 days, room temperature, sealed vial, Form IX from acetone/butyl methyl ether (Form IX Recrystallization (4))): new signal at 9.1° 2θ, possibly indicating the presence of Form VII as well as partial amorphization of the sample
- XRPD change on storage ([3]; 7 days, room temperature, sealed vial, Form IX Recrystallization (1), ethyl acetate/heptane): stable under ambient conditions
- XRPD change on storage ([3]; 7 days, room temperature, sealed vial, Form IX Recrystallization (2)): weak XRPD signals ascribable to small amounts of Form I
- XRPD change on storage ([3]; 8 days, room temperature, sealed vial, Form IX from room temperature ethyl acetate/heptane 50/50 (v/v) slurries, unassigned signals at 10.1, 11.7, 16.8, 18.5, 19.4, 23.1): these peaks persisted following 8 days of storage
- XRPD change on storage ([3]; 13 days, room temperature, sealed vial, Form IX Recrystallization (2)): weak XRPD signals ascribable to small amounts of Form I

SMILES: CC/C(=C(\c1ccc(O)cc1)c1ccc(OCCNC)cc1)c1ccccc1 [Form V, (Z)-endoxifen]
- XRPD change on storage [3, 7]: converted almost completely to Form VI
- XRPD change on storage ([3]; 10 days, room temperature, sealed vial): completely to Form VI

SMILES: CC/C(=C(\c1ccc(O)cc1)c1ccc(OCCNC)cc1)c1ccccc1 [Form VI, (Z)-endoxifen]
- XRPD change on storage ([3]; 14 days, room temperature, sealed vial): stable under ambient conditions

SMILES: CC/C(=C(\c1ccc(O)cc1)c1ccc(OCCNC)cc1)c1ccccc1 [Form VII, (Z)-endoxifen]
- XRPD pattern after storage [1, 5]: no significant change to the XRPD pattern
- XRPD pattern after storage [1, 6]: no significant change to the XRPD pattern
- Degradation temperature (TGA) [2]: above 270 °C
- XRPD change on storage [3, 8]: stable under ambient conditions

SMILES: CC/C(=C(\c1ccc(O)cc1)c1ccc(OCCNC)cc1)c1ccccc1 [Form VIII, (Z)-endoxifen]
- XRPD change on storage [3, 8]: no significant difference

SMILES: CC/C(=C(\c1ccc(O)cc1)c1ccc(OCCNC)cc1)c1ccccc1 [Form X, (Z)-endoxifen]
- XRPD change on storage [3, 8]: near complete conversion to Form XI

SMILES: CC/C(=C(\c1ccc(O)cc1)c1ccc(OCCNC)cc1)c1ccccc1 [Form XI, (Z)-endoxifen]
- XRPD change on storage ([3]; 18 days, room temperature): stable under ambient conditions

SMILES: CC/C(=C(\c1ccc(O)cc1)c1ccc(OCCNC)cc1)c1ccccc1 [Form XII, (Z)-endoxifen]
- XRPD change on storage ([3]; 2 days, room temperature, sealed vial): stable under ambient conditions

SMILES: CC/C(=C(\c1ccc(O)cc1)c1ccc(OCCNC)cc1)c1ccccc1 [Form XIV, (Z)-endoxifen]
- XRPD change on storage [3, 7]: partial conversion to Forms I and VII
- XRPD change on storage [3, 8]: partial conversion to Forms I and VII

SMILES: CC/C(=C(\c1ccc(O)cc1)c1ccc(OCCNC)cc1)c1ccccc1 [Form XIX, (Z)-endoxifen]
- XRPD change on storage [3, 8]: stable under ambient conditions

SMILES: CC/C(=C(\c1ccc(O)cc1)c1ccc(OCCNC)cc1)c1ccccc1 [Form XV, (Z)-endoxifen]
- Room temperature stability ([3]; duration not given): limited room temperature stabilities

SMILES: CC/C(=C(\c1ccc(O)cc1)c1ccc(OCCNC)cc1)c1ccccc1 [Form XVII, (Z)-endoxifen]
- XRPD change on storage [3, 7]: complete conversion of Form XVII (Form XVII) into Form I

SMILES: CC/C(=C(\c1ccc(O)cc1)c1ccc(OCCNC)cc1)c1ccccc1 [Form XVIII, (Z)-endoxifen]
- XRPD change on storage [3, 8]: partial amorphization

SMILES: CC/C(=C(\c1ccc(O)cc1)c1ccc(OCCNC)cc1)c1ccccc1 [Forms I and IV polymorphic mixture, (Z)-endoxifen]
- XRPD change on storage [3, 8]: No significant changes were detected

SMILES: CC/C(=C(\c1ccc(O)cc1)c1ccc(OCCNC)cc1)c1ccccc1 [first mixture of Form I and Form VII, (Z)-endoxifen]
- XRPD pattern after mechanical grinding [4]: amorphous (Z)-endoxifen with signals ascribable to Form I and Form VII

SMILES: CC/C(=C(\c1ccc(O)cc1)c1ccc(OCCNC)cc1)c1ccccc1 [mixture of Form I and Form IV, (Z)-endoxifen]
- XRPD pattern after storage ([1]; 25° C./60% RH): mixture of Form I and Form IV
- XRPD pattern after storage ([1]; 60° C./75% RH): XRPD pattern of Form I
- XRPD pattern after mechanical grinding [4]: Form I with traces of Form IV
- XRPD pattern after kneading [4]: Form I with a signal at 4.8° 20 ascribable to Form IV

SMILES: CC/C(=C(\c1ccc(O)cc1)c1ccc(OCCNC)cc1)c1ccccc1 [mixture of Form I, Form IV, and Form VII, (Z)-endoxifen]
- XRPD pattern after storage ([1]; 25° C./60% RH): mixture of Form I, Form IV, and Form VII
- XRPD pattern after storage ([1]; 60° C./75% RH): mixture of Form I and Form VII
- XRPD pattern after mechanical grinding [4]: Form I with a slightly lowered degree of crystallinity
- XRPD pattern after kneading [4]: Form I with a mild signal at 4.8° 20 ascribable to Form IV

SMILES: CC/C(=C(\c1ccc(O)cc1)c1ccc(OCCNC)cc1)c1ccccc1 [mixture of Form XII and Form XIII, (Z)-endoxifen]
- XRPD change on storage ([3]; 4 days, room temperature, sealed vial): conversion of Form XIII to Form XII
- XRPD change on storage ([3]; 5 days total, room temperature, sealed vial): conversion to only Form XII

SMILES: CC/C(=C(\c1ccc(O)cc1)c1ccc(OCCNC)cc1)c1ccccc1 [second mixture of Form I and Form VII, (Z)-endoxifen]
- XRPD pattern after mechanical grinding [4]: Form I and Form VII with slightly lowered crystallinity
